# What was measured:
# Conditions in all cases: 48 h
# SEM cells [1] = assay: cell viability relative to DMSO control; higher = less cytotoxic
# How it was run: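 Viability is expressed as a percentage of DMSO wells within each plate, and cell-free wells serve as background. Seeding densities in the 1536-well plates (5 μl) were 500 cells/well for NOMO1 or SEM leukemia cells and 1000 cells/well for P12-Ichikawa. Each line was adapted for at least four passages in each medium. Library compounds in DMSO were pin-dosed at 47 μM to 0.79 nM (11 points, threefold), and CellTiter-Glo One luminescence was read after 48 h at 37°C.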
# NOMO1 = assay: AUC of viability dose-response curve (% viability x log10 dose units); higher = less sensitive
# How it was run: (§1)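 Leukemia cells adapted to each medium were seeded in 1536-well plates (500 or 1000 cells/well). They were dosed with library compounds in DMSO at 11 threefold doses, 47 μM to 0.79 nM, for 48 h at 37°C. CellTiter-Glo One luminescence was normalised per plate to DMSO and cell-free wells. Area under the curve was integrated by trapezoidal rule over log10 doses on a four-parameter log-logistic fit; curves exceeding full viability were scaled and curves failing quality control removed.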
# P12-Ichikawa = assay: as above
# How it was run: as §1
# SEM cells [2] = assay: as above
# How it was run: as §1
# [3] = HPLM + 10% dialyzed FBS, 0.000781 µM
# [4] = HPLM + 10% dialyzed FBS, 0.00234 µM
# [5] = HPLM + 10% dialyzed FBS, 0.00702 µM
# [6] = HPLM + 10% dialyzed FBS, 0.0211 µM
# [7] = HPLM + 10% dialyzed FBS, 0.0632 µM
# [8] = HPLM + 10% dialyzed FBS, 0.19 µM
# [9] = HPLM + 10% dialyzed FBS, 0.569 µM
# [10] = HPLM + 10% dialyzed FBS, 1.71 µM
# [11] = HPLM + 10% dialyzed FBS, 5.12 µM
# [12] = HPLM + 10% dialyzed FBS, 15.4 µM
# [13] = HPLM + 10% dialyzed FBS, 46.1 µM
# [14] = RPMI 5 mM glucose + 10% dialyzed FBS
smiles,measurement,setting,value
CC1COC2(CCN(CC2)C/3=N/C(=O)C4=CC(=CC(=C4S3)[N+]([O-])=O)C(F)(F)F)O1 (stereo not given),cell viability,SEM cells [1]; [3],97.9%
same,cell viability,SEM cells [1]; [4],105%
same,cell viability,SEM cells [1]; [5],122%
same,cell viability,SEM cells [1]; [6],109%
same,cell viability,SEM cells [1]; [7],93.9%
same,cell viability,SEM cells [1]; [8],126%
same,cell viability,SEM cells [1]; [9],133%
same,cell viability,SEM cells [1]; [10],122%
same,cell viability,SEM cells [1]; [11],117%
same,cell viability,SEM cells [1]; [12],82.3%
same,cell viability,SEM cells [1]; [13],78.3%
same,AUC of viability dose-response curve,NOMO1; HPLM + 10% dialyzed FBS,471
same,AUC of viability dose-response curve,NOMO1; RPMI 5 mM glucose + 10% FBS,473
same,AUC of viability dose-response curve,NOMO1; [14],467
same,AUC of viability dose-response curve,P12-Ichikawa; HPLM + 10% dialyzed FBS,448
same,AUC of viability dose-response curve,P12-Ichikawa; RPMI 5 mM glucose + 10% FBS,442
same,AUC of viability dose-response curve,P12-Ichikawa; [14],434
same,AUC of viability dose-response curve,SEM cells [2]; HPLM + 10% dialyzed FBS,456
same,AUC of viability dose-response curve,SEM cells [2]; RPMI 5 mM glucose + 10% FBS,441
same,AUC of viability dose-response curve,SEM cells [2]; [14],446
CCN1CCC(n2cc(CNc3cc(Cl)c4ncc(C#N)c(Nc5ccc(F)c(Cl)c5)c4c3)nn2)CC1,AUC of viability dose-response curve,NOMO1; HPLM + 10% dialyzed FBS,433
same,AUC of viability dose-response curve,NOMO1; RPMI 5 mM glucose + 10% FBS,445
same,AUC of viability dose-response curve,NOMO1; [14],447
same,AUC of viability dose-response curve,P12-Ichikawa; HPLM + 10% dialyzed FBS,377
same,AUC of viability dose-response curve,P12-Ichikawa; RPMI 5 mM glucose + 10% FBS,432
same,AUC of viability dose-response curve,P12-Ichikawa; [14],426
same,AUC of viability dose-response curve,SEM cells [2]; HPLM + 10% dialyzed FBS,433
same,AUC of viability dose-response curve,SEM cells [2]; RPMI 5 mM glucose + 10% FBS,367
same,AUC of viability dose-response curve,SEM cells [2]; [14],400
CC(=O)O[C@H]1C[C@@H]2CC[C@@H]3[C@H](CC[C@@]4(C)[C@H]3C[C@H]([N+]3(C)CCCCC3)[C@@H]4OC(C)=O)[C@@]2(C)C[C@@H]1N1CCCCC1,cell viability,SEM cells [1]; [3],124%
same,cell viability,SEM cells [1]; [4],124%
same,cell viability,SEM cells [1]; [5],138%
same,cell viability,SEM cells [1]; [6],123%
same,cell viability,SEM cells [1]; [7],146%
same,cell viability,SEM cells [1]; [8],144%
same,cell viability,SEM cells [1]; [9],120%
same,cell viability,SEM cells [1]; [10],137%
same,cell viability,SEM cells [1]; [11],132%
same,cell viability,SEM cells [1]; [12],125%
same,cell viability,SEM cells [1]; [13],110%
same,AUC of viability dose-response curve,NOMO1; HPLM + 10% dialyzed FBS,454
same,AUC of viability dose-response curve,NOMO1; RPMI 5 mM glucose + 10% FBS,438
same,AUC of viability dose-response curve,NOMO1; [14],467
same,AUC of viability dose-response curve,P12-Ichikawa; HPLM + 10% dialyzed FBS,464
same,AUC of viability dose-response curve,P12-Ichikawa; RPMI 5 mM glucose + 10% FBS,466
same,AUC of viability dose-response curve,P12-Ichikawa; [14],469
same,AUC of viability dose-response curve,SEM cells [2]; HPLM + 10% dialyzed FBS,470
same,AUC of viability dose-response curve,SEM cells [2]; RPMI 5 mM glucose + 10% FBS,465
same,AUC of viability dose-response curve,SEM cells [2]; [14],466
CN1CCN(CC1)C2=C3OCN(C)N4\C=C(C(O)=O)/C(=O)C(=C34)C=C2F,cell viability,SEM cells [1]; [3],66.2%
same,cell viability,SEM cells [1]; [4],116%
same,cell viability,SEM cells [1]; [5],120%
same,cell viability,SEM cells [1]; [6],124%
same,cell viability,SEM cells [1]; [7],115%
same,cell viability,SEM cells [1]; [8],115%
same,cell viability,SEM cells [1]; [9],117%
same,cell viability,SEM cells [1]; [10],116%
same,cell viability,SEM cells [1]; [11],102%
same,cell viability,SEM cells [1]; [12],105%
same,cell viability,SEM cells [1]; [13],82%
same,AUC of viability dose-response curve,NOMO1; HPLM + 10% dialyzed FBS,454
same,AUC of viability dose-response curve,NOMO1; RPMI 5 mM glucose + 10% FBS,450
same,AUC of viability dose-response curve,NOMO1; [14],465
same,AUC of viability dose-response curve,P12-Ichikawa; HPLM + 10% dialyzed FBS,459
same,AUC of viability dose-response curve,P12-Ichikawa; RPMI 5 mM glucose + 10% FBS,459
same,AUC of viability dose-response curve,P12-Ichikawa; [14],465
same,AUC of viability dose-response curve,SEM cells [2]; HPLM + 10% dialyzed FBS,471
same,AUC of viability dose-response curve,SEM cells [2]; RPMI 5 mM glucose + 10% FBS,466
same,AUC of viability dose-response curve,SEM cells [2]; [14],434
CC(C)(Oc1ccc(C2CC2(Cl)Cl)cc1)C(=O)O (stereo not given),cell viability,SEM cells [1]; [3],125%
same,cell viability,SEM cells [1]; [4],131%
same,cell viability,SEM cells [1]; [5],123%
same,cell viability,SEM cells [1]; [6],125%
same,cell viability,SEM cells [1]; [7],127%
same,cell viability,SEM cells [1]; [8],128%
same,cell viability,SEM cells [1]; [9],120%
same,cell viability,SEM cells [1]; [10],122%
same,cell viability,SEM cells [1]; [11],95.3%
same,cell viability,SEM cells [1]; [12],110%
same,cell viability,SEM cells [1]; [13],63.6%
same,cell viability,"SEM cells [1]; RPMI 5 mM glucose + 10% FBS, 0.000781 µM",117%
same,cell viability,"SEM cells [1]; RPMI 5 mM glucose + 10% FBS, 0.00234 µM",109%
same,cell viability,"SEM cells [1]; RPMI 5 mM glucose + 10% FBS, 0.00702 µM",101%
same,cell viability,"SEM cells [1]; RPMI 5 mM glucose + 10% FBS, 0.0211 µM",111%
same,cell viability,"SEM cells [1]; RPMI 5 mM glucose + 10% FBS, 0.0632 µM",101%
same,cell viability,"SEM cells [1]; RPMI 5 mM glucose + 10% FBS, 0.19 µM",110%
same,cell viability,"SEM cells [1]; RPMI 5 mM glucose + 10% FBS, 0.569 µM",91.9%
same,cell viability,"SEM cells [1]; RPMI 5 mM glucose + 10% FBS, 1.71 µM",119%
same,cell viability,"SEM cells [1]; RPMI 5 mM glucose + 10% FBS, 5.12 µM",79.9%
same,cell viability,"SEM cells [1]; RPMI 5 mM glucose + 10% FBS, 15.4 µM",106%
same,cell viability,"SEM cells [1]; RPMI 5 mM glucose + 10% FBS, 46.1 µM",49%
same,AUC of viability dose-response curve,NOMO1; HPLM + 10% dialyzed FBS,457
same,AUC of viability dose-response curve,NOMO1; RPMI 5 mM glucose + 10% FBS,454
same,AUC of viability dose-response curve,NOMO1; [14],453
same,AUC of viability dose-response curve,P12-Ichikawa; HPLM + 10% dialyzed FBS,453
same,AUC of viability dose-response curve,P12-Ichikawa; RPMI 5 mM glucose + 10% FBS,447
same,AUC of viability dose-response curve,P12-Ichikawa; [14],453
same,AUC of viability dose-response curve,SEM cells [2]; HPLM + 10% dialyzed FBS,444
same,AUC of viability dose-response curve,SEM cells [2]; RPMI 5 mM glucose + 10% FBS,464
same,AUC of viability dose-response curve,SEM cells [2]; [14],456
